For the series, the system named is Phospholipidosis. As to the kind of experiment: Literature-mined public compounds from Lowe et al phospholipidosis modelling dataset.

With `CCC(c1ccc(OCCN(CC)CC)cc1)C(CC)c1ccc(OCCN(CC)CC)cc1` (stereo not drawn) [CORALGIL], the Phospholipidosis entry was “Positive”.

As for `CN1CCN(C(c2ccccc2)c2ccccc2)CC1` [CYCLIZINE], the Phospholipidosis result is listed as “Positive”.

`CC(=O)O[C@]1(C(C)=O)CC[C@H]2[C@@H]3C=C(Cl)C4=CC(=O)[C@@H]5C[C@@H]5[C@]4(C)[C@H]3CC[C@@]21C` [CYPROTERONE ACETATE]: the Phospholipidosis entry was “Negative”.

As to `O=C1CN(/N=C/c2ccc(-c3ccc([N+](=O)[O-])cc3)o2)C(O)=N1` [DANTROLENE], the Phospholipidosis result is on record as “Negative”.

On to `CC(=O)N(O)CCCCCNC(=O)CCC(=O)N(O)CCCCCNC(=O)CCC(=O)N(O)CCCCCN` [DEFEROXAMINE], for which the Phospholipidosis result is “Negative”.

For `CN(C)[C@@H]1C(O)=C(C(N)=O)C(=O)[C@@]2(O)C(O)=C3C(=O)c4c(O)ccc(Cl)c4[C@@H](O)[C@H]3C[C@@H]12` [DEMECLOCYCLINE], the Phospholipidosis entry is recorded as “Negative”.

Take `CNCCCN1c2ccccc2CCc2ccccc21` [DESIPRAMINE]: the Phospholipidosis result is “Positive”.

For the compound `CN1C(=O)CN=C(c2ccccc2)c2cc(Cl)ccc21` [DIAZEPAM], the Phospholipidosis entry is given as “Negative”.

As to `NC[C@@H]1CC[C@@H](N)[C@@H](O[C@H]2[C@H](O)[C@@H](O[C@H]3O[C@H](CO)[C@@H](O)[C@H](N)[C@H]3O)[C@H](N)C[C@@H]2N)O1` [DIBEKACIN], the Phospholipidosis result is “Positive”.

With `O=C(O)Cc1ccccc1Nc1c(Cl)cccc1Cl` [DICLOFENAC], the Phospholipidosis result is “Negative”.

On to `O=C(O)c1cc(-c2ccc(F)cc2F)ccc1O` [DIFLUNISAL], for which the Phospholipidosis entry is listed as “Negative”.

With `CC(C)N(CCC(CCN1CCCCC1)(C(N)=O)c1ccccc1Cl)C(C)C` (stereo not drawn) [DISOBUTAMIDE], the Phospholipidosis result is on record as “Positive”.

With `COc1cc2c(cc1OC)C(=O)C(CC1CCN(Cc3ccccc3)CC1)C2` (stereo not drawn) [DONEPEZIL], the Phospholipidosis result was “Negative”.

For the compound `CCN1CC(CCN2CCOCC2)C(c2ccccc2)(c2ccccc2)C1=O` (stereo not drawn) [DOXAPRAM], the Phospholipidosis result was “Negative”.

`COc1cccc2c1C(=O)c1c(O)c3c(c(O)c1C2=O)C[C@@](O)(C(=O)CO)C[C@@H]3O[C@H]1C[C@H](N)[C@H](O)[C@H](C)O1` [DOXORUBICIN]: the Phospholipidosis entry is “Negative”.

Consider `C[C@H]1c2cccc(O)c2C(=O)C2=C(O)[C@]3(O)C(=O)C(C(N)=O)=C(O)[C@@H](N(C)C)[C@@H]3[C@@H](O)[C@@H]21.O` [DOXYCYCLINE], for which the Phospholipidosis entry was “Negative”.

As for `CC[C@H]1CN2CCc3cc(OC)c(OC)cc3[C@@H]2C[C@@H]1C[C@H]1NCCc2cc(OC)c(OC)cc21` [EMETINE], the Phospholipidosis entry is “Positive”.

Regarding `CC[C@H]1OC(=O)[C@H](C)[C@@H](O[C@H]2C[C@@](C)(OC)[C@@H](O)[C@H](C)O2)[C@H](C)[C@@H](O[C@@H]2O[C@H](C)C[C@H](N(C)C)[C@H]2O)[C@](C)(O)C[C@@H](C)C(=O)[C@H](C)[C@@H](O)[C@]1(C)O` [ERYTHROMYCIN], the Phospholipidosis entry was “Positive”.

As to `C#C[C@]1(O)CC[C@H]2[C@@H]3CCc4cc(O)ccc4[C@H]3CC[C@@]21C` [ETHINYL ESTRADIOL], the Phospholipidosis entry is on record as “Negative”.

As for `CCSCC[C@H](N)C(=O)O` [ETHIONINE], the Phospholipidosis result is recorded as “Negative”.

In the case of `CCOC(=O)C1N=C(c2ccccc2F)c2cc(Cl)ccc2NC1=O` (stereo not drawn) [ETHYL LOFLAZEPATE], the Phospholipidosis result is “Positive”.

Regarding `COc1cc([C@@H]2c3cc4c(cc3[C@@H](O[C@@H]3O[C@@H]5CO[C@@H](C)O[C@H]5[C@H](O)[C@H]3O)[C@H]3COC(=O)[C@H]23)OCO4)cc(OC)c1O` [ETOPOSIDE], the Phospholipidosis entry was “Negative”.

As to `NC(N)=Nc1nc(CSCCC(N)=NS(N)(=O)=O)cs1` [FAMOTIDINE], the Phospholipidosis result is given as “Negative”.

As to `NC(=O)OCC(COC(N)=O)c1ccccc1` [FELBAMATE], the Phospholipidosis entry is “Negative”.

Take `CCNC(C)Cc1cccc(C(F)(F)F)c1` (stereo not drawn) [FENFLURAMINE]: the Phospholipidosis result is “Positive”.

As for `CC(C)OC(=O)C(C)(C)Oc1ccc(C(=O)c2ccc(Cl)cc2)cc1` [FENOFIBRATE], the Phospholipidosis result was “Negative”.

As to `O=C(NCC1CCCCN1)c1cc(OCC(F)(F)F)ccc1OCC(F)(F)F` (stereo not drawn) [FLECAINIDE], the Phospholipidosis result is given as “Negative”.

Regarding `CNCCC(Oc1ccc(C(F)(F)F)cc1)c1ccccc1` (stereo not drawn) [FLUOXETINE], the Phospholipidosis result is listed as “Positive”.

Take `CC(C)C(=O)Nc1ccc([N+](=O)[O-])c(C(F)(F)F)c1` [FLUTAMIDE]: the Phospholipidosis entry is given as “Negative”.

In the case of `COCCCC/C(=N\OCCN)c1ccc(C(F)(F)F)cc1` [FLUVOXAMINE], the Phospholipidosis entry is reported as “Positive”.

For `NS(=O)(=O)c1cc(C(=O)O)c(NCc2ccco2)cc1Cl` [FUROSEMIDE], the Phospholipidosis result is on record as “Negative”.

Turning to `Cc1ccc(C)c(OCCCC(C)(C)C(=O)O)c1` [GEMFIBROZIL], the Phospholipidosis result is reported as “Negative”.

In the case of `CN[C@@H]1[C@@H](O)[C@@H](O[C@@H]2[C@@H](O)[C@H](O[C@H]3O[C@H]([C@@H](C)NC)CC[C@H]3N)[C@@H](N)C[C@H]2N)OC[C@]1(C)O` [GENTAMICIN C1], the Phospholipidosis entry was “Positive”.

For `CN[C@@H]1[C@@H](O)[C@@H](O[C@@H]2[C@@H](O)[C@H](O[C@H]3O[C@H](C(C)N)CC[C@H]3N)[C@@H](N)C[C@H]2N)OC[C@]1(C)O` (stereo partly drawn) [GENTAMICIN C2], the Phospholipidosis result is on record as “Positive”.

For `N[C@H]1C(O)O[C@H](CO)[C@@H](O)[C@@H]1O` (stereo partly drawn) [GLUCOSAMINE], the Phospholipidosis entry is listed as “Negative”.

On to `O=C(CCCN1CCC(O)(c2ccc(Cl)cc2)CC1)c1ccc(F)cc1` [HALOPERIDOL], for which the Phospholipidosis result was “Positive”.

On to `CN1CCCN(C(c2ccccc2)c2ccc(Cl)cc2)CC1` (stereo not drawn) [HOMOCHLORCYCLIZINE], for which the Phospholipidosis result is given as “Positive”.

In the case of `NN` [HYDRAZINE], the Phospholipidosis entry was “Negative”.

For the compound `NC(=O)NO` [HYDROXYUREA], the Phospholipidosis result is recorded as “Negative”.

As for `OCCOCCN1CCN(C(c2ccccc2)c2ccc(Cl)cc2)CC1` (stereo not drawn) [HYDROXYZINE], the Phospholipidosis entry is recorded as “Positive”.

Regarding `CN(C)CCCN1c2ccccc2CCc2ccccc21` [IMIPRAMINE], the Phospholipidosis entry was “Positive”.

As for `O=C(NC1CCN(CCc2c[nH]c3ccccc23)CC1)c1ccccc1` [INDORAMIN], the Phospholipidosis result is “Positive”.

As to `CC(=O)N1CCN(c2ccc(OCC3COC(Cn4ccnc4)(c4ccc(Cl)cc4Cl)O3)cc2)CC1` (stereo not drawn) [KETOCONAZOLE], the Phospholipidosis entry is “Positive”.

With `CC(CCc1ccccc1)NCC(O)c1ccc(O)c(C(N)=O)c1` (stereo not drawn) [LABETALOL], the Phospholipidosis entry is on record as “Positive”.

As for `C[C@H]1COc2c(N3CCN(C)CC3)c(F)cc3c(=O)c(C(=O)O)cn1c23.C[C@H]1COc2c(N3CCN(C)CC3)c(F)cc3c(=O)c(C(=O)O)cn1c23.O` [LEVOFLOXACIN], the Phospholipidosis result is on record as “Negative”.

Regarding `CCN(CC)CC(=O)Nc1c(C)cccc1C` [LIDOCAINE], the Phospholipidosis entry is “Positive”.

As to `CCOC(=O)N1CCC(=C2c3ccc(Cl)cc3CCc3cccnc32)CC1` [LORATADINE], the Phospholipidosis result is “Positive”.

For the compound `CCN(CC)C(=O)[C@@H]1C=C2c3cccc4[nH]cc(c34)C[C@H]2N(C)C1` [LYSERGIDE], the Phospholipidosis entry is listed as “Positive”.

With `CNCCCC12CCC(c3ccccc31)c1ccccc12` [MAPROTILINE], the Phospholipidosis entry was “Positive”.

For `Cc1cccc(CN2CCN(C(c3ccccc3)c3ccc(Cl)cc3)CC2)c1` (stereo not drawn) [MECLIZINE], the Phospholipidosis result is on record as “Positive”.

On to `CC12CC3CC(C)(C1)CC(N)(C3)C2` [MEMANTINE], for which the Phospholipidosis result is “Positive”.

On to `CC1=CC(=O)c2ccccc2C1=O` [MENADIONE], for which the Phospholipidosis result is reported as “Negative”.

As for `CN1CCCCC1CCN1c2ccccc2Sc2ccc([S+](C)[O-])cc21` (stereo not drawn) [MESORIDAZINE], the Phospholipidosis result is “Positive”.

With `CN(C)C(=N)N=C(N)N` [METFORMIN], the Phospholipidosis result is listed as “Negative”.

Take `CCC(=O)C(CC(C)N(C)C)(c1ccccc1)c1ccccc1` (stereo not drawn) [METHADONE]: the Phospholipidosis entry is “Negative”.

Consider `CN(Cc1cnc2nc(N)nc(N)c2n1)c1ccc(C(=O)N[C@@H](CCC(=O)O)C(=O)O)cc1` [METHOTREXATE], for which the Phospholipidosis entry was “Negative”.

Regarding `C[C@](N)(Cc1ccc(O)c(O)c1)C(=O)O` [METHYLDOPA], the Phospholipidosis entry is given as “Negative”.

For `CN1CCN2c3ccccc3Cc3ccccc3C2C1` (stereo not drawn) [MIANSERIN], the Phospholipidosis entry is reported as “Positive”.

For `CCN[C@@H]1C[C@H](N)[C@@H](O[C@H]2OC(CN)=CC[C@H]2N)[C@H](O)[C@H]1O[C@H]1OC[C@](C)(O)[C@H](NC)[C@H]1O` [NETILMICIN], the Phospholipidosis result was “Positive”.

With `Clc1ccc(C(c2ccccc2)N2CCNCC2)cc1` (stereo not drawn) [NORCHLORCYCLIZINE], the Phospholipidosis result is “Positive”.

On to `CNCCC=C1c2ccccc2CCc2ccccc21` [NORTRIPTYLINE], for which the Phospholipidosis entry is “Positive”.

With `CN(C)CCON=C1c2ccccc2CCc2ccccc21` [NOXIPTILINE], the Phospholipidosis entry is listed as “Positive”.

Take `CC1COc2c(N3CCN(C)CC3)c(F)cc3c(=O)c(C(=O)O)cn1c23` (stereo not drawn) [OFLOXACIN]: the Phospholipidosis result is “Negative”.

`NCCc1cc(O)c(O)cc1O` [OXIDOPAMINE]: the Phospholipidosis entry was “Positive”.

On to `C1CCC(C(CC2CCCCN2)C2CCCCC2)CC1` (stereo not drawn) [PERHEXILINE], for which the Phospholipidosis entry is reported as “Positive”.

Turning to `CCOc1ccc(NC(C)=O)cc1` [PHENACETIN], the Phospholipidosis entry was “Positive”.

In the case of `CCC1(c2ccccc2)C(=O)NC(=O)NC1=O` [PHENOBARBITAL], the Phospholipidosis result was “Negative”.

Consider `CC(C)(N)Cc1ccccc1` [PHENTERMINE], for which the Phospholipidosis result was “Positive”.

Take `CNC(=O)Oc1ccc2c(c1)[C@]1(C)CCN(C)[C@@H]1N2C` [PHYSOSTIGMINE]: the Phospholipidosis result is recorded as “Negative”.

`Cc1cccc(Nc2cc(Cl)nc(SCC(=O)O)n2)c1C` [PIRINIXIC ACID]: the Phospholipidosis result was “Negative”.

Consider `CN1C(C(=O)Nc2ccccn2)=C(O)c2ccccc2S1(=O)=O` [PIROXICAM], for which the Phospholipidosis entry is on record as “Negative”.

Take `CC(Cc1ccccc1)NCCC(c1ccccc1)c1ccccc1` (stereo not drawn) [PRENYLAMINE]: the Phospholipidosis entry is on record as “Positive”.

On to `CCN(CC)CCNC(=O)c1ccc(N)cc1` [PROCAINAMIDE], for which the Phospholipidosis entry is listed as “Negative”.

Source of the values: ChEMBL document CHEMBL1697681, “Predicting phospholipidosis using machine learning” (Mol Pharm, 2010).
